pKi: −log10 of the molar value.

The target of the assay is Orexin/Hypocretin receptor type 1 (Rattus norvegicus, UniProt P56718). Put plainly: Radioligand Binding Assay: Described in Bergman et. al. Bioorg. Med. Chem. Lett. 2008, 18, 1425-1430. Also on record: species or system Homo sapiens.
Chain of Orexin/Hypocretin receptor type 1 (P56718 whole entry, looked up): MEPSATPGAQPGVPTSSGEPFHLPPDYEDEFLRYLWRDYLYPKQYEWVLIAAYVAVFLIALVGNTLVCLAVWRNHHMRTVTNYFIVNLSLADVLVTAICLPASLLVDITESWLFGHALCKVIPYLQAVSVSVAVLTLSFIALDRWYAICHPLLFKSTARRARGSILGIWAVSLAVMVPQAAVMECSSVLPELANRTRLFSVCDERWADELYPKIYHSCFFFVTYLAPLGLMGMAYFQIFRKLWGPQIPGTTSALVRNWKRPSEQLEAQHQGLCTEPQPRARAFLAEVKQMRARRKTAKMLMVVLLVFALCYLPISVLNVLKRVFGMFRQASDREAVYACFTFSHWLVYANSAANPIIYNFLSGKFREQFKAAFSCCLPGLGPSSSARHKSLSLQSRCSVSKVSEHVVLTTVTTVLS
The molecule `COC(=O)c1c(C#N)ccnc1O[C@@H]1CC[C@@H](C)N(C(=O)c2ccccc2-n2nccn2)C1` gave a pKi of 7.25.
In the case of `COC(=O)c1c(C#N)ccnc1O[C@@H]1CC[C@@H](C)N(C(=O)c2cc(F)ccc2-c2nc(C)no2)C1` it was 6.82; in that of `COC(=O)c1c(C#N)ccnc1O[C@@H]1CC[C@@H](C)N(C(=O)c2cccc(F)c2-c2noc(C)n2)C1`, 6.89.
In the case of `COC(=O)c1c(C#N)ccnc1O[C@@H]1CC[C@@H](C)N(C(=O)c2cccc(F)c2-n2nccn2)C1` it was 6.68; in that of `COC(=O)c1c(C#N)ccnc1O[C@@H]1CC[C@@H](C)N(C(=O)c2ccccc2-c2nc(C)no2)C1`, 7.13.
The result for `COC(=O)c1c(C#N)ccnc1O[C@@H]1CC[C@@H](C)N(C(=O)c2cc(F)ccc2-c2ncccn2)C1` reads 7.34; that for `COC(=O)c1c(C#N)ccnc1O[C@@H]1CC[C@@H](C)N(C(=O)c2ccc(F)cc2-c2nc(C)no2)C1`, 6.39.
As for `COC(=O)c1c(C#N)ccnc1O[C@@H]1CC[C@@H](C)N(C(=O)c2ccc(F)cc2-c2ncccn2)C1`, the pKi is 7.12.
Regarding `COC(=O)c1c(C#N)ccnc1O[C@@H]1CC[C@@H](C)N(C(=O)c2cc(F)ccc2-n2nccn2)C1`, the pKi was 6.84.
In turn, `COC(=O)c1c(C#N)ccnc1O[C@@H]1CC[C@@H](C)N(C(=O)c2ccccc2-c2noc(C)n2)C1` showed a pKi of 7.06.
The result for `COC(=O)c1c(C#N)ccnc1O[C@@H]1CC[C@@H](C)N(C(=O)c2cc(C)ccc2-n2nccn2)C1` reads 7.59.
Regarding `COC(=O)c1c(C#N)ccnc1O[C@@H]1CC[C@@H](C)N(C(=O)c2ccc(F)cc2-n2nccn2)C1`, the pKi was 6.76.
The result for `COC(=O)c1c(C#N)ccnc1O[C@@H]1CC[C@@H](C)N(C(=O)c2cc(F)ccc2-c2noc(C)n2)C1` reads 6.93.
The result for `COC(=O)c1c(C#N)ccnc1O[C@@H]1CC[C@@H](C)N(C(=O)c2c(C)cccc2-n2nccn2)C1` reads 7.43.
The result for `COC(=O)c1c(C#N)ccnc1O[C@@H]1CC[C@@H](C)N(C(=O)c2c(F)cccc2-n2nccn2)C1` reads 7.20.

The term pKi denotes −log10 of the Ki, conventionally taken in molar units. The low end stands for a high Ki, the high end for a low Ki.
